Tests used:
Format in all cases: biochemical
Stromelysin-1 = Stromelysin-1 (Homo sapiens, UniProt P08254); test: Enzyme inhibition assay (peptide substrate Dnp-Pro-Leu-Gly-Leu-Trp-Ala-D-Arg-NH2, Trp fluorescence), stromelysin; conditions: pH 7.5, overnight, Ki (app) assumed to approximate true Ki
Source text: (§1) The enzymes cleave at the Gly-Leu bond which can be followed fluorimetrically by measuring the increase in Trp fluorescence emission associated with the removal of the quenching dinitrophenol (Dnp) group.
(§2) Ki values can be established using the equation for tight-being inhibition: [formula] where Vo is the initial rate of reaction in the absence of inhibitor, Vi is the initial rate in the presence of inhibitor, [E] is the total enzyme concentration and [I] the total inhibitor concentration in the reaction mixture.
(§3) For stromelysin and collagenase, Ki (app) was assumed to approximate to the true Ki as [S]<<Km for the substrate hydrolysis. For gelatinase the Ki was determined by performing the analyses at several substrate concentrations. A plot of Ki (app) vs. [S] then gave the true Ki as the value of the y-axis intercept.

Collagenase = target: T1, Collagenase (Homo sapiens, UniProt P03956); test: Enzyme inhibition assay (peptide substrate Dnp-Pro-Leu-Gly-Leu-Trp-Ala-D-Arg-NH2, Trp fluorescence), collagenase; conditions: pH 7.5, overnight, Ki (app) assumed to approximate true Ki
T1 sequence (P03956 100-469): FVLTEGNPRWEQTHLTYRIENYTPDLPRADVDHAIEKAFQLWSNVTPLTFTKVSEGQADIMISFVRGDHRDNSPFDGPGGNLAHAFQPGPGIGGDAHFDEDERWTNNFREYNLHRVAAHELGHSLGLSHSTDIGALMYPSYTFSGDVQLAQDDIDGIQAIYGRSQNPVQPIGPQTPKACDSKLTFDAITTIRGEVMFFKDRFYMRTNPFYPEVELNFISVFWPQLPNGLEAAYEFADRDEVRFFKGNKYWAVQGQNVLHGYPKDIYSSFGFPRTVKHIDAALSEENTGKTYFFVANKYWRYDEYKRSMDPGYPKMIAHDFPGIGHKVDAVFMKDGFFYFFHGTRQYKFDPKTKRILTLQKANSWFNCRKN
Source text: as §1, §2, §3

Gelatinase-72KD = target: T2, Gelatinase-72KD (Homo sapiens, UniProt P08253); test: Enzyme inhibition assay (peptide substrate Dnp-Pro-Leu-Gly-Leu-Trp-Ala-D-Arg-NH2, Trp fluorescence), gelatinase; conditions: pH 7.5, overnight; true Ki from plot of Ki (app) vs. [S], y-axis intercept
T2 sequence (P08253 110-660): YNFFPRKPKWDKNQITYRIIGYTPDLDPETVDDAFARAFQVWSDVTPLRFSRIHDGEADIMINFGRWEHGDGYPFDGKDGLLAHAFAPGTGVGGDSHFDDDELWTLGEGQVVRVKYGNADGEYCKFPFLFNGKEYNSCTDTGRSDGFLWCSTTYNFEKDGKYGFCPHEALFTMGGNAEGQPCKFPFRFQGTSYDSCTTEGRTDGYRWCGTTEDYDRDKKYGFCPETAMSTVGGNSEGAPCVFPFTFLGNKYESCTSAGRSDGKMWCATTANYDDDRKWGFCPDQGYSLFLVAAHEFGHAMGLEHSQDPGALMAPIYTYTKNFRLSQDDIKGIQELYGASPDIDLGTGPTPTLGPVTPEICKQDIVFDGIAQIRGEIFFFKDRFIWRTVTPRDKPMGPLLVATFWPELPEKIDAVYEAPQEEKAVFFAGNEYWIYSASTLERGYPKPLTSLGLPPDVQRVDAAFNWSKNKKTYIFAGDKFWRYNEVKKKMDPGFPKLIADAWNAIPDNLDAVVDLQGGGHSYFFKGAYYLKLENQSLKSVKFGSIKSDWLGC
Source text: as §1, §2, §3

[1] = value printed in μM in the cell

Sequence of Stromelysin-1 (P08254 100-477, species assumed): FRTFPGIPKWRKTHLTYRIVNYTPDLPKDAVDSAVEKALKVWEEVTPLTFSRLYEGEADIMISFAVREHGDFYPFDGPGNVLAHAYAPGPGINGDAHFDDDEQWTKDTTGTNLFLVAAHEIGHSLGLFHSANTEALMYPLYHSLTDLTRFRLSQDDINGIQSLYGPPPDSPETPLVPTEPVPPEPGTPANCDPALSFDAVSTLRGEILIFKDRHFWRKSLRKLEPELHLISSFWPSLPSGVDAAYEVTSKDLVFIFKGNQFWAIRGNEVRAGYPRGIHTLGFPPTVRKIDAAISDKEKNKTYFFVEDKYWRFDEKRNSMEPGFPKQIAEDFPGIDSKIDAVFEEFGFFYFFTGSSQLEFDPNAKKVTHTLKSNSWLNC

| Ki (Stromelysin-1) [µM] | Ki (Collagenase) [µM] | Ki (Gelatinase-72KD) [nM] | Structure (SMILES) | Ki (Stromelysin-1; [1]) [µM] | Ki (Collagenase; [1]) [µM] |
| --- | --- | --- | --- | --- | --- |
| 0.00592 | 0.15 | 0.025 | NS(=O)(=O)c1ccc(CCNC(=O)[C@H](CC2CCCCC2)NC(=O)[C@H](CCCc2ccccc2)CC(=O)NO)cc1 [Example 6, [4-(N-Hydroxyamino)-2R-phenylpropylsuccinyl]-L-β-cyclohexyalanine-N-(2-(p-sulphonamidophenyl)ethyl) amide] |  |  |
| 0.0248 | 0.21 | 0.14 | O=C(C[C@@H](CCCc1ccccc1)C(=O)N[C@@H](CC1CCCCC1)C(=O)NCCCN1CCOCC1)NO [Example 12, [4-(N-Hydroxyamino)-2R-phenylpropylsuccinyl]-L-β-cyclohexylalanine-N-[3(4-morpholinyl)propyl] amide] |  |  |
| 0.842 |  |  | O=C(O)C[C@@H](CCCc1ccccc1)C(=O)N[C@@H](CC1CCCCC1)C(=O)NCCc1ccccc1 [Example 15, [4-Hydroxy-2(R)-(3-phenylpropyl)succinnyl]-L-β-cyclohexylalanine-(N-2-phenylethyl) amide] |  |  |

| Structure (SMILES) | Ki (Stromelysin-1) [µM] | Ki (Collagenase) [µM] | Ki (Gelatinase-72KD) [nM] | Ki (Stromelysin-1; [1]) [µM] | Ki (Collagenase; [1]) [µM] |
| --- | --- | --- | --- | --- | --- |
| COC(=O)CCNC(=O)[C@H](CC1CCCCC1)NC(=O)[C@H](CCCc1ccccc1)CC(=O)O [Example 16, [4-Hydroxy-2(R)-(3-phenylpropyl)succinyl]-L-β-cyclohexylalanine-β-alanine methyl ester] |  |  | 6 | 1.47 | 57 |
